Assay results taken from ChEMBL document CHEMBL1135857, “Exploration of peptidyl hydrazones as water-soluble calpain inhibitors” (Bioorg Med Chem Lett, 2002).
In brackets after ≈: the same amount, converted by molar mass.

What was measured:
[1] = Water solubility was determined at pH 5; type: ADME
[2] = Water solubility was determined at pH 6; type: ADME
[3] = Water solubility was determined at pH 4; type: ADME
[4] = Water solubility was determined at pH 7; type: ADME
[5] = molecular target: T1, Calpain-1 catalytic subunit (Sus scrofa, UniProt P35750); test: Tested for inhibitory activity against porcine erythrocyte Mu-calpain
T1 sequence (P35750 whole entry): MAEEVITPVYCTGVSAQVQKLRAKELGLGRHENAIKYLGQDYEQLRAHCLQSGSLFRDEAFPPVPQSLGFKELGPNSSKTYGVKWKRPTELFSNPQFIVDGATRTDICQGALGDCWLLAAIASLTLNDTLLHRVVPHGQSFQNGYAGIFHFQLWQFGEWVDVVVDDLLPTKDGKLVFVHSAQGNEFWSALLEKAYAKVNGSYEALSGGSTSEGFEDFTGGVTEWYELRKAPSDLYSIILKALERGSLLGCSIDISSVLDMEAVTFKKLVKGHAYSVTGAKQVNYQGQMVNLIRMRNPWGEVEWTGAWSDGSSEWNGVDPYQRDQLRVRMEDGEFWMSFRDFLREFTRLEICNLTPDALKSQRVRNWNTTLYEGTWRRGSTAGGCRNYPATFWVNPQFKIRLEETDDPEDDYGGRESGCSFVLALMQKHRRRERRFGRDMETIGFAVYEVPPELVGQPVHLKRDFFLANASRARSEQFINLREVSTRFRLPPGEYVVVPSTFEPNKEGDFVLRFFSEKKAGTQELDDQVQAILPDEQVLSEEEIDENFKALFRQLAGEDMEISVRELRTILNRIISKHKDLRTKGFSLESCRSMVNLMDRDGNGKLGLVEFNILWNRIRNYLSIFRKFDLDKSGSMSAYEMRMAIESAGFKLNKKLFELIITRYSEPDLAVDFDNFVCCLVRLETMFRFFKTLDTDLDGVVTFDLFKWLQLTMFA

CC(C)[C@H](NS(=O)(=O)c1ccc(F)cc1)C(=O)NC/C=N/NC(=O)CN(C)C
solubility [1]: > 5000 µg/mL | solubility [2]: > 5000 µg/mL | solubility [3]: > 5000 µg/mL | solubility [4]: > 5000 µg/mL | IC50 [5]: > 10000 nM

CC(C)C[C@@H](C=O)NC(=O)[C@@H](NS(=O)(=O)c1ccc(F)cc1)C(C)C
solubility [2]: 100 µg/mL (≈ 268 µM) | solubility [3]: 102 µg/mL (≈ 274 µM) | solubility [4]: 105 µg/mL (≈ 282 µM) | IC50 [5]: 35 nM

CC(C)[C@H](NS(=O)(=O)c1ccc(F)cc1)C(=O)NC/C=N/N1CCOCC1
solubility [1]: 840 µg/mL (≈ 2100 µM) | solubility [2]: 692 µg/mL (≈ 1730 µM) | solubility [3]: 1260 µg/mL (≈ 3150 µM) | solubility [4]: 667 µg/mL (≈ 1670 µM) | IC50 [5]: 6200 nM

CC(C)C[C@@H](/C=N/NCCO)NC(=O)[C@@H](NS(=O)(=O)c1ccc(F)cc1)C(C)C
solubility [1]: 234 µg/mL (≈ 543 µM) | solubility [2]: 226 µg/mL (≈ 525 µM) | solubility [3]: 228 µg/mL (≈ 530 µM) | solubility [4]: 293 µg/mL (≈ 681 µM) | IC50 [5]: 190 nM

CC(C)C[C@@H](/C=N/N1CCOCC1)NC(=O)[C@@H](NS(=O)(=O)c1ccc(F)cc1)C(C)C
solubility [1]: 63.3 µg/mL (≈ 139 µM) | solubility [2]: 60.8 µg/mL (≈ 133 µM) | solubility [3]: 67.3 µg/mL (≈ 147 µM) | solubility [4]: 58.2 µg/mL (≈ 127 µM) | IC50 [5]: 790 nM

CC(C)C[C@@H](/C=N/NC(N)=O)NC(=O)[C@@H](NS(=O)(=O)c1ccc(F)cc1)C(C)C
solubility [3]: 433 µg/mL (≈ 1010 µM) | IC50 [5]: 680 nM
